Assay [1] has as its target T1, Gamma-aminobutyric acid receptor subunit alpha-5 (Homo sapiens, UniProt P31644).
T1 sequence (P31644 whole entry): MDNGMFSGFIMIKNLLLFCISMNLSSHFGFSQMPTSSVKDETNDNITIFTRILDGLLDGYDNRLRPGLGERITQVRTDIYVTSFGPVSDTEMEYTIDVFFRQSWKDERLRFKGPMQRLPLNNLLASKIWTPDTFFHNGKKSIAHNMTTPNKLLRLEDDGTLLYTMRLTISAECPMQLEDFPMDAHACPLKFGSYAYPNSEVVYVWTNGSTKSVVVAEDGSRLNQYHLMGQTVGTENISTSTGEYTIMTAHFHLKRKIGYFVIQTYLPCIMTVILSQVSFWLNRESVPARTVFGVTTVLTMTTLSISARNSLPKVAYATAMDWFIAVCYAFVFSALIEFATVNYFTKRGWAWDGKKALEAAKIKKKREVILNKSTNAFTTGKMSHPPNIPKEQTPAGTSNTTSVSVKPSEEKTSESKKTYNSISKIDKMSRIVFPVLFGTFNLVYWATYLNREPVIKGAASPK
Description: Inhibition of [3H]flumazenil binding to recombinant GABA-A receptor alpha-5 subunit in cerebellum. It counts as tissue-based.

In assay [2] the target is T1, Gamma-aminobutyric acid receptor subunit alpha-5. Description: Inhibition of [3H]flumazenil binding to recombinant GABA-A receptor alpha-5 subunit in spinal cord. It counts as tissue-based.

The structures appear in SMILES notation. pIC50: −log10 of the molar value.

Regarding `CCCC(=O)N(C)Cc1c(-c2ccc(Cl)cc2)nc2ccccn12`, the pIC50 in assay [1] was 8.57; in assay [2] it was 8.34.

(Values after ChEMBL document CHEMBL1130521, “A conformational study of ligands for omega modulatory sites of GABAa receptors by NOESY NMR spectroscopy and distance geometry” (Bioorg Med Chem Lett, 1997).)
